Reference: patent US20080114008A1, “Quinazoline Derivatives as Antiviral Agents” (ARROW THERAPEUTICS LIMITED, priority 2005, published 2008)

What was measured:
[1] = system: HCV replicon cells Huh 9B; test: HCV replicon luciferase assay; type: cell-based; details: Hepatitis C virus; Huh 9B replicon cells, 72 h incubation, luciferase readout
Description: (§1) HCV replicon cells Huh 9B (ReBlikon), containing the firefly luciferase—ubiquitin—neomycin phosphotransferase fusion protein and EMCV-IRES driven HCV polyprotein with cell culture adaptive mutations.
(§2) Cells were cultured at 37° C. in a 5% CO2 environment and split twice a week on seeding at 2×10E6 cells/flask on day 1 and 1×10E6 3 days later. Some 0.25 mg/ml G418 was added to the culture medium (125 ul per 25 ml) but not the assay medium.
(§3) The culture medium consisted of DMEM with […] glucose and glutamax (Gibco 61965-026) supplemented with 1× non-essential amino acids, penicillin (100 IU/ml) / streptomycin (100 μg/ml), FCS (10%, 50 ml) and 1 mg/ml G418 (Invitrogen cat no 10131-027) & 10% foetal calf serum.
(§4) A flask of cells was trypsinised and a cell count carried out. Cells were diluted to 100,000 cells/ml and 100 μl of this used to seed one opaque white 96-well plate (for the replicon assay) and one flat-bottomed clear plate (for the tox assay) for every seven compounds to be tested for IC50. Wells G12 and H12 were left empty in the clear plate as the blank. Plates were then incubated at 37° C. in a 5% CO2 environment for 24 h.
(§5) On the following day compound dilutions are made up in medium at twice their desired final concentration in a clear round bottomed plate. All dilutions have a final DMSO concentration of 1%.
(§6) Once the dilution plate had been made up, controls and compounds were transferred to the assay plate (containing the cells) at 100 μl/well in duplicate plates. Exception: in the white (replicon) plate, no compound was added to wells A1 and A2 and 100 μl of 1% DMSO was added to these instead. In the clear (Tox) plate, wells E12 & F12 only contained the DMSO control. Plates were then incubated at 37° C. with 5% CO2 for 72 h.
At the end of the incubation time, the cells in the white plate were harvested by washing with 200 μl/well of warm (37° C.) PBS and lysed with 20 μl cell culture lysis buffer (Promega). […]

[2] = system: HCV replicon cells Huh 9B; test: Tox assay (methylene blue staining of replicon cells); type: cell-based; details: Huh 9B replicon cells, 72 h incubation, methylene blue absorbance at 620 nm
Description: as §1, §2, §3, §4, §5
as §6, with “Plates were then incubated at 37° C. with 5% CO2 for 72 h.” left out
The clear plate was stained with 100 μl 0.5% methylene blue in 50% ethanol at RT for 1 h, followed by solvation of the absorbed methylene blue in 100 μl per well of 1% lauroylsarcosine. Absorbance of the plate was measured on a microplate spectrophotometer (Molecular Devices) and the absorbance for each concentration of compound expressed as a proportion of the relative DMSO control. […]

SMILES | IC50 [1] | Replicon TD50 [2]
c1nc(Nc2ccc(N3CCOCC3)cc2)c2cc(-c3ccc4ncnc(Nc5ccc(N6CCOCC6)cc5)c4c3)ccc2n1 [Example 1, N-(4-morpholinophenyl)-6-(4-(4-morpholinophenylamino)quinazolin-6-yl)quinazolin-4-amine] | < 1 µM | *** (>25 uM = ***)
c1ccc(Nc2ncnc3ccc(-c4ccc5ncnc(Nc6ccc(N7CCOCC7)cc6)c5c4)cc23)cc1 [Example 2, N*4*-(4-Morpholin-4-yl-phenyl)-N*4′*-phenyl-[6,6′]biquinazolinyl-4,4′-diamine] | < 1 µM | *** (>25 uM = ***)
c1nc(Nc2ccc(-n3cncn3)cc2)c2cc(-c3ccc4ncnc(Nc5ccc(-n6cncn6)cc5)c4c3)ccc2n1 [Example 3, N*4*,N*4′*-Bis-(4-[1,2,4]triazol-1-yl-phenyl)-[6,6′]biquinazolinyl-4,4′-diamine] | < 1 µM | *** (>25 uM = ***)
